system: stomach motility; assay: Determination of effect on stomach motility in anaesthetised rats; format: in vivo, rats of the SIV 50 strain; settings: ip; rat, 100 μmole/kg i.p.; read-out: Maximum Amplitude Increase (increase in % of control amplitude)
Method: 2. Determination of effect on stomach motility in anaesthetised rats.
For the tests, groups of 5-6 fasting rats of the SIV 50 strain having a body weight of 220-290 g were used in each test which had been anaesthetised with a ketamine/xylazine mixture. The animals received an initial dose of 1 ml/kg of a solution of 50 mg/ml of ketamine and 10 mg/ml of xylazine administered i.p., and the anaesthetic level was maintained by a continuous intraperitoneal infusion of the same solution at an infusion rate of 1 ml/kg/h. The animals were tracheotomised and laparotomised. After applying a pylorus ligature, a stomach tube was inserted into the stomach and connected at the other end by means of a three-way tap to a calibrated pressure transducer (Statham Element P 23 ID). A corresponding tube was inserted rectally 8-9 cm into the colon and likewise connected in the same manner to a calibrated pressure transducer of the same type. The stomachs of the animals were then filled with 2 ml of water via the tube. After a stabilisation phase of 40 min, the pressure variations in the stomach and colon were measured over a test period of 2 hours and 20 minutes, and the amplitudes produced by the phasic gastric motility were recorded by means of a Watanabe multirecorder (MC 6621). The geometric mean values of the amplitudes during the first 20 min were determined for the individual animals and used as control amplitude values. After the first 20 min, the test substances were administered i.p. The maximum increase in amplitude (=mean value of the 20 minute period in which the highest increase in amplitude occurs) caused by the test substances was determined in % increase of the control amplitude values determined before administration of the test substances, and the mean value for the animal group is given in the following Table A. In addition, the maximum increase in the mean gastric tone caused by the test substances during the test period compared with the mean gastric tone existing before administration of the test substances was recorded. This increase in gastric tone is given in Table A in cm of H2 O (mean value of the animal group). In the colon, the test substances cause amplitude damping.

Row | Structure (SMILES) | change in vivo at 100 µmol/kg
1 | O=C1NC(CNC2CCCCC2)Cc2c[nH]c3cccc1c23 (stereo not drawn) [Example 28] | 17%
2 | O=C1NC(CN2CCOCC2)Cc2c[nH]c3cccc1c23 (stereo not drawn) [Example 29] | 154%
3 | CC(C)(C)NCC1Cc2c[nH]c3cccc(c23)C(=O)N1 (stereo not drawn) [Example 31] | 928%
4 | COc1ccc(CCNCC2CNC(=O)c3cccc4[nH]cc2c34)cc1OC (stereo not drawn) [Example 32] | 922%
5 | CC(C)n1cc2c3c(cccc31)C(=O)NCC2CN (stereo not drawn) [Example 34] | 467%
6 | COc1ccc(CCn2cc3c4c(cccc42)C(=O)NCC3CN)cc1OC (stereo not drawn) [Example 36] | 351%
7 | O=C1NCC(CN2CCCC2)c2c[nH]c3cccc1c23 (stereo not drawn) [Example 37] | 950%
8 | CCCNCC1CNC(=O)c2cccc3[nH]cc1c23 (stereo not drawn) [Example 38] | 559%
9 | CN(C)CC1CNC(=O)c2cccc3[nH]cc1c23 (stereo not drawn) [Example 39] | 569%
10 | CCCN(CCC)CC1CNC(=O)c2cccc3[nH]cc1c23 (stereo not drawn) [Example 40] | 997%
11 | CCCCNCC1CNC(=O)c2cccc3[nH]cc1c23 (stereo not drawn) [Example 41] | 234%
12 | O=C1NC(CNC2CC2)Cc2c[nH]c3cccc1c23 (stereo not drawn) [Example 45] | 580%

same assay, conditions: rat, 100 μmole/kg i.p.

Row | Structure (SMILES) | Gastric Tone Increase
13 | CCNCC1CNC(=O)c2cccc3[nH]cc1c23 (stereo not drawn) [Example 5a, 3-Ethylaminomethyl-3,4,5,6-tetrahydro-6-oxo-1H-azepino[5,4,3-cd]indole] | 9.5 cm H2O
14 | O=C1NCC(CN2CCCCC2)c2c[nH]c3cccc1c23 (stereo not drawn) [Example 14, 3-(1-Piperidinylmethyl)-3,4,5,6-tetrahydro-6-oxo-1H-azepino[5,4,3-cd]indole] | 3.0 cm H2O
15 | O=C1NC(CNC2CCCCC2)Cc2c[nH]c3cccc1c23 (stereo not drawn) [Example 28] | 0.5 cm H2O
16 | COc1ccc(CCn2cc3c4c(cccc42)C(=O)NCC3CN)cc1OC (stereo not drawn) [Example 36] | 11.5 cm H2O
17 | O=C1NCC(CN2CCCC2)c2c[nH]c3cccc1c23 (stereo not drawn) [Example 37] | 4.0 cm H2O
18 | CCCNCC1CNC(=O)c2cccc3[nH]cc1c23 (stereo not drawn) [Example 38] | 12.4 cm H2O
19 | CN(C)CC1CNC(=O)c2cccc3[nH]cc1c23 (stereo not drawn) [Example 39] | 1.8 cm H2O
20 | CCCN(CCC)CC1CNC(=O)c2cccc3[nH]cc1c23 (stereo not drawn) [Example 40] | 6.5 cm H2O
21 | CCCCNCC1CNC(=O)c2cccc3[nH]cc1c23 (stereo not drawn) [Example 41] | 2.7 cm H2O
22 | O=C1NC(CNC2CC2)Cc2c[nH]c3cccc1c23 (stereo not drawn) [Example 45] | 3.5 cm H2O
23 | O=C1NCC(CNCC2CC2)c2c[nH]c3cccc1c23 (stereo not drawn) [Example 47] | 6.7 cm H2O

system: Mouse; assay: not given; design: species or system Male mice; settings: in vivo, po, 4320 min
Method: 1. Determination of the minimum toxic dose.
Male mice of 20-25 g weight are administered maximum doses of 300 mg/kg of the test substance p.o. The animals were carefully observed for 3 hours for symptoms of toxicity. Over a period of 72 hours after administration, all symptoms and cases of death are additionally recorded. Concomitant symptoms are likewise observed and recorded. If death or strong toxic symptoms are observed, further mice are administered increasingly lower doses until toxic symptoms no longer occur. The lowest dose which causes death or strong toxic symptoms is given in the following Table A as the minimum toxic dose. The example numbers given in Table A relate to the subsequent preparation examples.

Row | Structure (SMILES) | Minimum Toxic Dose
24 | CCNCC1CNC(=O)c2cccc3[nH]cc1c23 (stereo not drawn) [Example 5a, 3-Ethylaminomethyl-3,4,5,6-tetrahydro-6-oxo-1H-azepino[5,4,3-cd]indole] | > 300 mg/kg
25 | O=C1NCC(CN2CCCCC2)c2c[nH]c3cccc1c23 (stereo not drawn) [Example 14, 3-(1-Piperidinylmethyl)-3,4,5,6-tetrahydro-6-oxo-1H-azepino[5,4,3-cd]indole] | > 300 mg/kg
26 | O=C1NC(CNC2CCCCC2)Cc2c[nH]c3cccc1c23 (stereo not drawn) [Example 28] | > 300 mg/kg
27 | O=C1NC(CN2CCOCC2)Cc2c[nH]c3cccc1c23 (stereo not drawn) [Example 29] | > 300 mg/kg
28 | CC(C)(C)NCC1Cc2c[nH]c3cccc(c23)C(=O)N1 (stereo not drawn) [Example 31] | > 300 mg/kg
29 | COc1ccc(CCNCC2CNC(=O)c3cccc4[nH]cc2c34)cc1OC (stereo not drawn) [Example 32] | > 300 mg/kg
30 | COc1ccc(CCn2cc3c4c(cccc42)C(=O)NCC3CN)cc1OC (stereo not drawn) [Example 36] | > 300 mg/kg
31 | O=C1NCC(CN2CCCC2)c2c[nH]c3cccc1c23 (stereo not drawn) [Example 37] | > 300 mg/kg
32 | CCCNCC1CNC(=O)c2cccc3[nH]cc1c23 (stereo not drawn) [Example 38] | > 300 mg/kg
33 | CN(C)CC1CNC(=O)c2cccc3[nH]cc1c23 (stereo not drawn) [Example 39] | > 300 mg/kg
34 | CCCN(CCC)CC1CNC(=O)c2cccc3[nH]cc1c23 (stereo not drawn) [Example 40] | > 300 mg/kg
35 | CCCCNCC1CNC(=O)c2cccc3[nH]cc1c23 (stereo not drawn) [Example 41] | > 300 mg/kg
36 | O=C1NC(CNC2CC2)Cc2c[nH]c3cccc1c23 (stereo not drawn) [Example 45] | > 300 mg/kg

Reference: patent US5272143A, “6-oxoazepinoindole compounds, and pharmaceutical compositions containing them” (Kali-Chemie Pharma GmbH, priority 1991, dated 1993)
